Patent publication US7514457B2, “Substituted aryloxymethyl bicyclicmethyl acetamide compounds” (Pfizer Inc., priority 2005, dated 2009)

The molecules below were run against human VR1 (Homo sapiens, UniProt Q8NER1) (assay: Human VR1 antagonist assay (Ca2+ imaging)). Settings: Ca2+ imaging in human VR1 expressing cells; agonist stimulation (capsaicin 300 nM or acid pH 5.8) not given.
Assay type: cell-based
Description: VR1 antagonistic activity can be determined by the Ca^2+ imaging assay using human VR1 highly expressing cells. The cells that highly express human VR1 receptors are obtainable from several different conventional methods. The one standard method is cloning from human Dorsal Root Ganglion (DRG) or kidney according to the methods such as described in the journal article; Nature, 389, pp816-824, 1997. Alternatively VR1 receptors highly expressing human keratinocytes are also known and published in the journal article (Biochemical and Biophysical Research Communications, 291, pp124-129, 2002). […] Furthermore, the method to up regulate human VR1 gene, which is usually a silent gene or don't produce detectable level of VR1 receptors, is also available to obtain propriety cells. Such genetic modification method was described in detail; Nat. Biotechnol., 19, pp440-445, 2001.
The cells that express human VR1 receptors were maintained in culture flask at 37° C. in an environment containing 5% CO2 until use in the assay. The intracellular Ca^2+ imaging assay to determine VR1 antagonistic activities were done by following procedures.
The culture medium was removed from the flask and fura-2/AM fluorescent calcium indicator was added to the flask at a concentration of 5 μM in the medium. The flask was placed in CO2 incubator and incubated for 1 hour. Then the cells expressing the human VR1 receptors were detached from the flask follow by washing with phosphate buffer saline, PBS(−) and re-suspended in assay buffer. The 80 μl of aliquot of cell suspension (3.75×10^5 cells/ml) was added to the assay plate and the cells were spun down by centrifuge (950 rpm, 20° C., 3 minutes).
The capsaicin-induced changes in the intracellular calcium concentration were monitored using FDSS 6000 (Hamamatsu Photonics, Japan), a fluorometric imaging system. The cell suspension in Krebs-Ringer HEPES (KRH) buffer (115 mM NaCl, 5.4 mM KCl, 1 mM MgSO4, 1.8 mM CaCl2, 11 mM D-Glucose, 25 mM HEPES, 0.96 mM Na2HPO4, pH 7.3) were pre-incubated with varying concentrations of the test compounds or KRH buffer (buffer control) for 15 minutes at room temperature under the dark condition. Then capsaicin solution, which gives 300 nM in assay mixture, was automatically added to the assay plate by the FDSS 6000.
The Acid-induced changes in the intracellular calcium concentration were monitored using FDSS 6000 (Hamamatsu Photonics, Japan), a fluorometric imaging system. The cell suspension in resting buffer (HBSS supplemented with 10 mM HEPES, pH 7.4) were pre-incubated with varying concentrations of the test compounds or resting buffer (buffer control) for 15 minutes at room temperature under the dark condition. The cells were automatically added the stimulating solution (HBSS supplemented with MES, final assay buffer pH5.8) by the FDSS 6000.
The monitoring of the changes in the fluorescence signals (λex=340 nm/380 nm, λem=510-520 nm) was initiated at 1 minute prior to the addition of capsaicin solution or acidic buffer and continued for 5 minute.
The compounds of the examples were tested in the Human VR1 antagonist assay described above.

Sequence of human VR1 (Q8NER1 whole entry): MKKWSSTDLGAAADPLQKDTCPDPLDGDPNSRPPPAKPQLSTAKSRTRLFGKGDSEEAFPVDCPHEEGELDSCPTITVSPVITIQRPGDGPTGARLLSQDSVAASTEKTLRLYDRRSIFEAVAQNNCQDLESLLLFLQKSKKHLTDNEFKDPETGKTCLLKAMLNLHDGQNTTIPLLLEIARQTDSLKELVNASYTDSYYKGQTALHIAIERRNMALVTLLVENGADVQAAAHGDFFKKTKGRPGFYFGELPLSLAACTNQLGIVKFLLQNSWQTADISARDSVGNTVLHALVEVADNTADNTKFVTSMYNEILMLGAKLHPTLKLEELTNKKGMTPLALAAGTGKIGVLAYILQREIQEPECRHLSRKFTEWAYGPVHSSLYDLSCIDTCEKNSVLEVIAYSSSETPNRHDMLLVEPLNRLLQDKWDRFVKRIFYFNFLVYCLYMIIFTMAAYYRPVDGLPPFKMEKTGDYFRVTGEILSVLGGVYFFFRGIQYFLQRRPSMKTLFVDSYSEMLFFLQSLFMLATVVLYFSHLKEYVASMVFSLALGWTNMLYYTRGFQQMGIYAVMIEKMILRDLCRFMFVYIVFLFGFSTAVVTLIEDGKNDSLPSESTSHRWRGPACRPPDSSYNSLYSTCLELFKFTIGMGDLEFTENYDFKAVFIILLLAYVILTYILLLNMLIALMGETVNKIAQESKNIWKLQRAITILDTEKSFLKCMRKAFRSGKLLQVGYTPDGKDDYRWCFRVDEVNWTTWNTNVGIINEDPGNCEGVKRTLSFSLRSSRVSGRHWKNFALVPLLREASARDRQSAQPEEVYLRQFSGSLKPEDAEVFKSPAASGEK

Question: Which IC50 does the source give for `Cn1c(=O)[nH]c2cc(CNC(=O)COc3ccc(C(C)(C)C)cc3)ccc21` [Example 5, 2-(4-tert-butylphenoxy)-N-[(1-methyl-2-oxo-2,3-dihydro-1H-benzimidazol-5-yl)methyl]acetamide] here?
Answer: Its IC50 is 462 nM.

Question: Which IC50 does the source give for `Oc1cc2c(cc1O)CN(C(=S)NCCc1ccc(Cl)cc1)CCC2` [Capsazepine, reference compound] here?
Answer: The IC50 was 250 to 350 nM.

Question: With `CC(C)(C)c1ccc(OCC(=O)NCc2ccc3[nH]c(=O)[nH]c3c2)cc1` [Example 1, 2-(4-tert-Butylphenoxy)-N-[(2-oxo-2,3-dihydro-1H-benzimidazol-5-yl)methyl]acetamide] as the molecule, how does the IC50 read?
Answer: Its IC50 is 421 nM.

Question: For `CC(C)(C)c1ccc(OCC(=O)NCc2ccc3[nH]cnc3c2)cc1` [Example 11, 2-(4-tert-butylphenoxy)-N-(1H-benzindazol-5-ylmethyl)acetamide], which IC50 is on record?
Answer: The IC50 was 837 nM.

Question: `Cn1c(=O)[nH]c2ccc(CNC(=O)COc3ccc(C(C)(C)C)c(Cl)c3)cc21` [Example 8, 2-(3-chloro-4-tert-butylphenoxy)-N-[(3-methyl-2-oxo-2,3-dihydro-1H-benzimidazol-5-yl)methyl]acetamide] was tested. Which IC50 did it give?
Answer: The IC50 was 481 nM.

Question: `CC(C)(C)c1ccc(OCC(=O)NCc2ccc3[nH]c(=O)oc3c2)cc1Cl` [Example 10, 2-(3-chloro-4-tert-butylphenoxy)-N-[(2-oxo-2,3-dihydro-1,3-benzoxazol-6-yl)methyl]acetamide] was tested. Which IC50 did it give?
Answer: The IC50 was 413 nM.

Question: How did the IC50 turn out when `CC(C)(C)c1ccc(OCC(=O)NCc2ccc3c(c2)CC(=O)N3)cc1Cl` [Example 9, 2-(3-chloro-4-tert-butylphenoxy)-N-[(2-oxo-2,3-dihydro-1H-indol-5-yl)methyl]acetamide] was run?
Answer: The IC50 was 478 nM.

Question: How did the IC50 turn out when `CC(C)(C)c1c(F)cc(OCC(=O)NCc2ccc3[nH]c(=O)[nH]c3c2)cc1F` [Example 3, 2-(4-tert-butyl-3,5-difluorophenoxy)-N-[(2-oxo-2,3-dihydro-1H-benzimidazol-5-yl)methyl]acetamide] was run?
Answer: Its IC50 is 97 nM.

Question: Which IC50 does the source give for `Cn1c(=O)[nH]c2cc(CNC(=O)COc3ccc(C(C)(C)C)c(Cl)c3)ccc21` [Example 7, 2-(4-tert-butyl-3-chlorophenoxy)-N-[(1-methyl-2-oxo-2,3-dihydro-1H-benzimidazol-5-yl)methyl]acetamide] here?
Answer: The IC50 was 175 nM.

Question: How did the IC50 turn out when `CC(C)(C)c1ccc(OCC(=O)NCc2ccc3[nH]c(=O)[nH]c3c2)cc1Cl` [Example 4, 2-(4-tert-Butyl-3-chlorophenoxy)-N-[(2-oxo-2,3-dihydro-1H-benzimidazol-5-yl)methyl]acetamide] was run?
Answer: The IC50 was 86 nM.

Question: Which IC50 does the source give for `CC(NC(=O)COc1cc(F)c(C(C)(C)C)c(F)c1)c1ccc2ncsc2c1` (stereo not drawn) [Example 15, N-[1-(1,3-benzothiazol-6-yl)ethyl]-2-(4-tert-butyl-3,5-difluorophenoxy)acetamide] here?
Answer: Its IC50 is 71 nM.

Question: For `CC(NC(=O)COc1cc(F)c(C(C)(C)C)c(F)c1)c1ccc2[nH]c(=O)[nH]c2c1` (stereo not drawn) [Example 13, 2-(4-tert-Butyl-3,5-difluorophenoxy)-N-[1-(2-oxo-2,3-dihydro-1H-benzimidazol-5-yl)ethyl]acetamide], which IC50 is on record?
Answer: Its IC50 is 50 nM.

Question: For `C[C@@H](NC(=O)COc1cc(F)c(C(C)(C)C)c(F)c1)c1ccc2nn[nH]c2c1` [Example 14, N-[(1R)-1-(1H-1,2,3-Benzotriazol-6-yl)ethyl]-2-(4-tert-butyl-3,5-difluorophenoxy)acetamide], which IC50 is on record?
Answer: Its IC50 is 31 nM.

Question: For `CC(C)(C)c1ccc(OCC(=O)NCc2ccc3[nH]cnc3c2)cc1` [Example 12, N-(1H-benzimidazol-5-ylmethyl)-2-(4-tert-butylphenoxy)acetamide], which IC50 is on record?
Answer: The IC50 was 286 nM.

Question: `CC(C)(C)c1ccc(OCC(=O)NCc2ccc3[nH]c(=O)[nH]c3c2)cc1F` [Example 2, 2-(4-tert-butyl-3-fluorophenoxy)-N-[(2-oxo-2,3-dihydro-1H-benzimidazol-5-yl)methyl]acetamide] was tested. Which IC50 did it give?
Answer: Its IC50 is 111 nM.
